Test results: patent US20240218399A1, “LIPID COMPOUNDS AND LIPID NANOPARTICLE COMPOSITIONS” (SUZHOU ABOGEN BIOSCIENCES CO., LTD., priority 2021, published 2024)

What was measured:
female ICR mice = test: In vivo hEPO mRNA expression, serum hEPO after tail vein injection; settings: 0.5 mg/kg tail vein; for hEPO protein expression level in mice among formulations of Table 6.7: FIG. 7, sphingomyelin of different tail length; for in vivo mRNA expression of sphingomyelin-containing LNP compared to corresponding DSPC control formulation: FIG. 9
Procedure: Lipid nanoparticles encapsulating human erythropoietin (hEPO) mRNA were prepared as described above, and systemically administered to 6-8 week old female ICR mice (Xipuer-Bikai, Shanghai) at 0.5 mg/kg dose by tail vein injection. Mice were euthanized by CO2 overdoses at 6 hours post administration, and blood samples were taken for hEPO measurement. Particularly, serum were separated from total blood by centrifugation at 5000 g for 10 minutes at 4° C., snap-frozen and stored at −80° C. for analysis. The serum hEPO level was measured using an ELSA assay carried out using a commercial kit (DEP00, R&D systems) according to manufacturer's instructions. The hEPO expression levels (μg/ml) measured from the tested group are plotted in FIG. 4, showing the mean value and standard deviation (SD) of at least five repeated experiments (test animals) for each group.
(§1) Each LNP formulation was systemically administered to 6-8 week old female ICR mice (Xipuer-Bikai, Shanghai) at 0.5 mg/kg dose by tail vein injection, and blood samples were taken for hEPO measurement as described herein. The hEPO expression levels (μg/ml) measured from the tested group are plotted in FIG. 6, showing the mean value and standard deviation (SD) of at least five repeated experiments (test animals) for each group.
as §1, with “7,” for “6,”
as §1, with “9,” for “6,”, “group. As shown, for each of the tested cationic lipids, the average in vivo expression level of mRNA was higher for the sphingomyelin containing composition as compared to the corresponding control formulation containing an equivalent amount of DSPC instead of sphingomyelin.” for “group.”

Hela cells = test: In vitro GFP mRNA expression from LNP formulations; assay type: cell-based; settings: for in vitro GFP expression of LNP formulated using sphingomyelin with this cationic lipid: FIG. 3C
Procedure: (§2) Lipid nanoparticles encapsulating green fluorescent protein (GFP) mRNA were prepared as described above. Hela cell line was seeded in a 96-well plate. LNP formulation was mixed with 10 μg/mL ApoE at 1:1 (v/v) ratio, then added to the cells at 200 ng/well or 400 ng/well concentrations, and incubated for 36 to 48 hours. GFP intensity was measured with […] following manufacturer's instructions, and fluorescence intensity (relative light units; RLU) of different groups were plotted in FIG. 3A to 3C, showing the mean value and standard deviation (SD) of at least five repeated experiments for each group.
as §2, with “Hela” for “Lipid nanoparticles encapsulating green fluorescent protein (GFP) mRNA were prepared as described above. Hela”, “ratio at 37° C. for 15 min,” for “ratio,”, “at” for “at 200 ng/well or”, “8,” for “3A to 3C,”, “three” for “five”

In the case of `CCCCCCCCCCCCC/C=C/[C@@H](O)[C@H](COP(=O)([O-])OCC[N+](C)(C)C)NC(=O)CCCCCCCCCCCCC` [SM-02, 14:0(d18:1/14:0)], the “hEPO protein expression level in mice among formulations of Table 6.7” value (female ICR mice) is reported as “highest protein expression level”.
With `CCCCCCCCC(CCCCCC)COC(=O)CCCCCN(CCCCCC(=O)OCC(CCCCCC)CCCCCCCC)CCN(CCO)C1CCC1` (stereo not drawn) [Formulation C1] the “in vitro GFP expression of LNP formulated using sphingomyelin with this cationic lipid” value (Hela cells) was “enhanced in vitro GFP expression” and the “in vivo mRNA expression of sphingomyelin-containing LNP compared to corresponding DSPC control formulation” value (female ICR mice) was “significantly higher”.
With `CCCCCCCCCOC(=O)CCCCCCCN(CCO)CCCCCCCC(=O)OC(CCCCCCCC)CCCCCCCC` [Lipid 5, reference compound] the “in vitro GFP expression of LNP formulated using sphingomyelin with this cationic lipid” value (Hela cells) was “enhanced in vitro GFP expression”.
`CCCCC/C=C\C/C=C\CCCCCCCC(=O)OCCCCCCN(CCO)CCCCC(COC(=O)CCCCCCC)COC(=O)CCCCCCC` [Formulation C16] was tested, and the “in vivo mRNA expression of sphingomyelin-containing LNP compared to corresponding DSPC control formulation” value (female ICR mice) was “significantly higher”.
In the case of `CCCCCCCCC(CCCCCC)C(=O)OCCCCCCN(CCCCO)CCCCCCOC(=O)C(CCCCCC)CCCCCCCC` (stereo not drawn) [ALC-0315, reference compound], the “in vivo mRNA expression of sphingomyelin-containing LNP compared to corresponding DSPC control formulation” value (female ICR mice) is reported as “significantly higher”.
For `CCCCCCCC(=O)OCC(CCCCN(CCCCCO)CCCCC(COC(=O)CCCCCCC)COC(=O)CCCCCCC)COC(=O)CCCCCCC` [Formulation C14], the “in vivo mRNA expression of sphingomyelin-containing LNP compared to corresponding DSPC control formulation” value (female ICR mice) was “significantly higher”.
For `CCCCCCCCC(CCCCCCCC)CNC(=O)CCCCCN(CCO)CCN(CCCCCC(=O)OCC(CCCCCCCC)CCCCCCCC)C1CCC1` [Formulation C3], the “in vitro mRNA expression of sphingomyelin-containing LNP compared to corresponding DSPC control formulation” value (Hela cells; GFP mRNA, 400 ng/well, FIG. 8) was “significantly higher”.
`CCCCCCCCCCCCC/C=C/[C@@H](O)[C@H](COP(=O)([O-])OCC[N+](C)(C)C)NC(=O)CCCCCCCCCCCCCCC` [SM-03, 16:0(d18:1/16:0)] was tested, and the “hEPO protein expression level in mice among formulations of Table 6.7” value (female ICR mice) was “highest protein expression level”.
